PMC12040169 (PLOS Biology, 2025)

Experiment: in vitro
Settings: human, hela cells, % viability

Row | Compound | viability at 28.5 h, 10 µM [%]
1 | O=C1c2ccccc2C(Nc2cccnc2)N1c1ccccn1 (centres unmarked) [CBK113239] | 80.5
2 | Cc1cc(C)nc(SCC(=O)Nc2ccc(S(=O)(=O)NC3CCCCC3)cc2)n1 [CBK268299] | 86
3 | Fc1ccc(-c2cn3ccnc3c(NC3CC3)n2)cc1F [CBK066692] | 101
4 | CC(C)[C@H](CO)n1c(=O)[nH]c2ncc(-c3cccc4ncccc34)nc21 [CBK064955] | 99.5
5 | CCOc1ccc(-c2cncc(N3CCC(C(=O)O)CC3)n2)cc1 [CBK065870] | 97.2
6 | OC(CN1CCNCC1)Cn1c2ccc(Cl)cc2c2cc(Cl)ccc21 (centres unmarked) [CBK094277G] | 68.1
7 | Cc1ccc(S(=O)(=O)N(C)CC(=O)OCC(=O)c2ccccc2)cc1 [CBK264329] | 95.1
8 | Cc1c(Cl)cccc1S(=O)(=O)NC1=NC(=O)C(CC(=O)Nc2ccccc2Cl)S1 (centres unmarked) [CBK200043] | 107
9 | COc1ccc(Cc2n[nH]c(=S)n2-c2cccnc2)cc1 [CBK288373] | 85.5
10 | CCCNc1cncc(-c2cccc(CO)c2)n1 [CBK065433] | 95.7
11 | O=c1[nH]c2ncc(-c3ccsc3)nc2n1CCCO [CBK065044] | 94.9
12 | COc1cc(CN2CCC[C@@H]2CN2CCCC2)cc(OC)c1OC [CBK149100] | 105
13 | N#Cc1c(NC(=O)c2cc(S(=O)(=O)N3CCOCC3)cs2)sc2c1CCCC2 [CBK264532] | 102
14 | O=C(O)CSc1nc2cc(Cl)c(Cl)cc2nc1N1CCCC1 [CBK107863] | 92.9
15 | O=S1(=O)CCN(Cc2cnn(-c3cncnc3)n2)CC1 [CBK112878] | 100
16 | CN1CCC(=NNC(=O)CN(c2cccc(Cl)c2)S(=O)(=O)c2ccccc2)CC1 [CBK262489] | 98
17 | Cc1cc(C)cc(OCc2nnc(SCC(=O)Nc3cc(C(F)(F)F)ccc3Cl)o2)c1 [CBK267890] | 94.6
18 | Cc1c(S(=O)(=O)Nc2ccnn2C)cnn1-c1ccccc1 [CBK062079] | 97.5
19 | c1ccc2oc(SCCCCSc3nc4ccccc4o3)nc2c1 [CBK025465] | 97.7
20 | O=C(c1ccsc1NS(=O)(=O)/C=C/c1ccccc1)N1CCOCC1 [CBK042285] | 90.8
21 | Cc1cc(CNC(=O)C2(c3ccccc3)CCCC2)no1 [CBK149518] | 103
22 | COc1ccc(CCN(Cc2ccc(Cl)c(Cl)c2)C(=O)NCCCSC)cc1OC [CBK158758] | 91.1

Row | Compound | viability at 28.5 h, 10 µM [%]
23 | COc1cccc(-c2nnc(SCC(=O)Nc3cc(C)on3)o2)c1 [CBK287391] | 89.9
24 | O=C(Nc1ccc(N2CCN(Cc3ccccc3)CC2)cc1)c1cncc(Br)c1 [CBK267093] | 85
25 | O=C1CCC(=O)N1CCn1c(=O)n(S(=O)(=O)c2ccc(-c3ccccc3)cc2)c2ccccc21 [CBK106494] | 112
26 | COc1ccccc1C(=O)N1CCC(C(=O)N(C)C(c2ccccc2)c2ncccc2C)CC1 (centres unmarked) [CBK060531] | 75.4
27 | CC(=O)Nc1ccc(CNC(=O)c2ccoc2C)cc1 [CBK305010] | 114
28 | CCOC(CCNC(=O)c1cnc(Nc2ccccc2OC)c2ccccc12)OCC [CBK291184] | 68.3
29 | O=C(Nc1ccc(Br)cc1C(=O)O)c1cccc(C(=O)Nc2ccc(Br)cc2C(=O)O)c1 [CBK261395] | 90.5
30 | COc1ccc([N+](=O)[O-])cc1NC(=O)c1cc(-c2ccccc2Cl)nc2ccc(C)cc12 [CBK267764] | 94.1
31 | O=C(NC1CCS(=O)(=O)C1)c1c[nH]c2ccccc2c1=O (centres unmarked) [CBK304295] | 88.7
32 | O=C(O)C1(Oc2ccc3ncccc3c2)CCN(CC2CCOC2)CC1 (centres unmarked) [CBK307336] | 93.2
33 | CC(C)(C)c1cc(CCC(=O)NNC(=O)c2ccccc2Cl)cc(C(C)(C)C)c1O [CBK268391] | 109
34 | CCOc1cc(/C=C2/SC(=S)N(c3cccc(C(F)(F)F)c3)C2=O)ccc1OCC(=O)O [CBK264965] | 106
35 | Cc1c(C)n(CC(=O)O)c2ccccc12 [CBK000884] | 97
36 | CSCCN1CCN(c2nccnc2OCC2COc3ccccc3O2)CC1 (centres unmarked) [CBK082806T] | 85.2
37 | Nc1ncc(-c2ccc(Cl)cc2)nc1-c1ccc(CCC(=O)O)cc1 [CBK064063] | 92.9
38 | COC(=O)c1cc(-c2cccnc2)[nH]n1 [CBK268945] | 104
39 | COc1ccc(-c2cc(C(=O)O)nn2C2CCS(=O)(=O)C2)cc1 (centres unmarked) [CBK286990] | 87.8
40 | Cc1cccnc1C(c1ccccc1)N(C)C(=O)C1CCN(C(=O)NCc2ccccc2)CC1 (centres unmarked) [CBK074119] | 106
41 | O=C(CSc1nc2ccccc2s1)OCc1ccc([N+](=O)[O-])cc1 [CBK262547] | 91.1
42 | Nc1nnc(-c2cccc(Cl)c2Cl)c(N)n1 [CBK011590] | 85.8
43 | CC(=O)NC[C@H]1CN(c2ccc3c(c2)CCN(C(=O)Cc2ccccc2)CC3)C(=O)O1 [CBK018499] | 111
44 | Cc1ccc(-c2nc3ccccc3[nH]2)cc1NC(=O)CSc1ccc(Cl)cc1 [CBK268942] | 98.3

Row | Compound | viability at 28.5 h, 10 µM [%]
45 | c1cnc(N2CCN(Cc3ccc4c(c3)OCO4)CC2)c(OCCN2CCOCC2)n1 [CBK082894T] | 87.8
46 | COc1ccc2c(c1)C1(CC(=O)N(Cc3ccccc3)C1=O)C(=O)N2CCn1cnc2c1c(=O)n(C)c(=O)n2C (centres unmarked) [CBK075478] | 93.5
47 | CCOC(=O)C1(C2CCCCC2)CCN(C(=O)CC2NC(=O)NC2=O)CC1 (centres unmarked) [CBK136938] | 100
48 | Cn1c(=O)c2c(nc(CN3CCN(Cc4ccccc4)CC3)n2CCc2ccccc2)n(C)c1=O [CBK269523] | 90.9
49 | Cc1nn(C)c(C)c1CN(C(=O)C(C)Oc1cccc(F)c1)C1CC1 (centres unmarked) [CBK281479] | 93.7
50 | O=C(O)[C@H]1CCCN1Cc1cc(Cl)ccc1OCCCn1ccnc1 [CBK307436] | 109
51 | CCOC(=O)c1cc(Cl)cnc1C1CCN(C(=O)C2CC2)CC1 [CBK284810] | 94.5
52 | O=c1[nH]nc2c3c4c(sc3ncn12)CCCC4 [CBK284235] | 56.8
53 | O=C(CN1CCCCC1)Nc1ccc(NC(=O)CN2CCCCC2)cc1 [CBK265421] | 86.3
54 | CC(C)C(=O)N1CCC(n2c(=O)oc3ccc(Cl)cc32)CC1 [CBK284339] | 79.9
55 | COc1ccc(C2(C(=O)N3CCC(c4ccncc4)CC3)CC2)cc1 [CBK285476] | 111
56 | COc1cccc(CN2C(=O)CC3(C2=O)C(=O)N(CC(=O)c2ccccc2)c2ccccc23)c1 (centres unmarked) [CBK075984] | 88.9
57 | Cn1ccnc1C(NC(=O)c1ccncc1)c1ccc(F)c(F)c1 (centres unmarked) [CBK283808] | 104
58 | O=C1C2(Cc3ccccc3)CN3CN(C2)CC1(Cc1ccccc1)C3 [CBK261341] | 89.9
59 | O=C(Cn1cc(C(=O)NC2CCCC2)ccc1=O)NCC1(c2ccccc2)CCCC1 [CBK286248] | 94.7
60 | CCOC(=O)c1cnc2cc(C)ccn2c1=O [CBK086650] | 93.1
61 | Cc1nc2c(c(=O)n1C)CN(Cc1cc(=O)n3cccc(O)c3n1)C2 [CBK306991] | 78.8
62 | O=C1COc2ccccc2CCCCC2(CCCN(C(=O)CN3CCCC3=O)C2)CN1 (centres unmarked) [CBK291992] | 105
63 | Cc1cc(NC(=O)c2ccc(S(=O)(=O)N3CCOCC3)cc2)nc2c1c(=O)oc1ccccc12 [CBK291134] | 106
64 | COc1ccccc1CC(=O)NNC(=O)c1ccco1 [CBK262956] | 91.6
65 | NC(=NOC(=O)c1cccc(Br)c1)c1ccccc1 [CBK261703] | 92.7
66 | CCNC(=O)CNc1cc(C#N)ccc1C(F)(F)F [CBK306432] | 86.5

Row | Compound | viability at 28.5 h, 10 µM [%]
67 | CS(=O)(=O)N1CCc2cc(S(=O)(=O)N3CCN(c4ccc([N+](=O)[O-])c(NCc5ccccc5)c4)CC3)ccc21 [CBK268311] | 102
68 | O=C(CC1CC1)Nc1cc(-c2ccncc2)c[nH]c1=O [CBK116585] | 91.9
69 | CN(C)c1ccc(-n2ccn(S(=O)(=O)c3ccc4ccccc4c3)c2=O)cc1 [CBK106607] | 93.5
70 | CCN(CC)C(=O)C1CCCN(C2CCN(C(=O)c3c4ccccc4cc4ccccc34)CC2)C1 (centres unmarked) [CBK066966] | 102
71 | COc1ccc(-n2c(SCC(N)=O)nc3sc4c(c3c2=O)CC(C)(C)OC4)cc1 [CBK263232] | 101
72 | COCCNc1nc(-c2ccsc2)ccc1C(=O)N1CCN(C)CC1 [CBK105948] | 112
73 | CCN(CC(=O)Nc1ccccc1OC)S(=O)(=O)c1ccccc1 [CBK269428] | 97.1
74 | Cc1c(S(=O)(=O)NCc2ccc(C(F)(F)F)c(F)c2)cnn1-c1ccccc1 [CBK062115] | 108
75 | COc1ccc(C(=O)N2CCN(Cc3ccc(SC)cc3)CC2)cc1 [CBK058613] | 112
76 | CC(=O)N1CCc2cc(NCc3nc4ccccc4n3C(C)c3ccccc3)ccc21 (centres unmarked) [CBK285621] | 81.7
77 | CN1CC(c2ccccc2)CC2(CCN(CCCn3cnnn3)CC2)C1 (centres unmarked) [CBK306522] | 95
78 | O=c1[nH]c(/C=C\c2cccc(OCCOc3ccccc3)c2)c([N+](=O)[O-])c(=O)[nH]1 [CBK266840] | 105
79 | CCOc1ccc(NC(=O)c2c(O)c3ccccc3n(CC)c2=O)cc1 [CBK287771] | 107
80 | Fc1ccccc1C1CCN(c2cncc(N3CCNCC3)n2)CC1 [CBK172236G] | 122
81 | O=C(OCc1ccccc1)N1CCC2(CC1)CN(c1ccc(C(F)(F)F)cn1)CCO2 [CBK161116T] | 95.8
82 | N#Cc1c2ccccc2cn1Cc1cccc(Cl)c1 [CBK019531] | 82.6
83 | COc1ccc(-c2cncc(C3CN(Cc4cccc5ncccc45)CCO3)n2)cc1 (centres unmarked) [CBK285947] | 96.7
84 | CS(=O)(=O)Nc1cc(-c2noc([C@@H]3CCCN3C3CCC3)n2)ccn1 [CBK288889] | 112
85 | COc1cccc(NC(=O)CCS(=O)(=O)c2ccccc2)c1 [CBK270150] | 91.9

Same assay, conditions: human, hela cells, % viability, bulk resorufin, single well

Row | Compound | viability at 28.5 h, 10 µM [%]
86 | CSc1cc(C)c2c(c1)COC1(CCN(C(=O)N[C@@H](C)c3ccccc3)CC1)O2 [CBK060747] | 94.5
